Experiments:
Assay in all cases: area under concentration-response curve (viability) (AUC (a.u.)); higher = less active
Conditions in all cases: 48 h
CU-ACC1 = system: CU-ACC1
Outline: (§1)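 In 1,536-well plates, 500–1,000 cells/well of three adrenocortical carcinoma cell lines in 5 µL medium received 23 nL of each library compound across 11 concentrations. At 48 h, CellTiter-Glo was incubated for 15 minutes at room temperature and luminescence measured. Per-plate normalisation used vehicle and empty-well controls, and only inhibitory or non-responding curve classes were kept when fitting concentration-response curves for AC50 and area under the curve.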

CU-ACC2 = system: CU-ACC2
Outline: as §1

NCI-H295R = system: NCI-H295R
Outline: as §1

| Compound | area under concentration-response curve (CU-ACC1) | area under concentration-response curve (CU-ACC2) | area under concentration-response curve (NCI-H295R) |
| --- | --- | --- | --- |
| CC(C)(C(=O)NCC(F)(F)C(F)(F)F)C(=O)N[C@@H]1C(=O)Nc2ccccc2-c2ccccc21 | 413 | 500 | 459 |
| CC(=O)O[C@H]1C[C@@H]2CC[C@@H]3[C@H](CC[C@@]4(C)[C@H]3C[C@H]([N+]3(C)CCCCC3)[C@@H]4OC(C)=O)[C@@]2(C)C[C@@H]1N1CCCCC1.[Br-] | 562 | 632 | 610 |
| Nc1nc(N)c2nc(CNc3ccc(C(=O)NC(CCC(=O)O)C(=O)O)cc3)cnc2n1 (configuration not stated) | 458 | 543 | 515 |
| CCN(CC)CCCC(C)Nc1ccnc2cc(Cl)ccc12 (configuration not stated) | 464 | 638 | 583 |
| CCOC(=O)C(C)(C)Oc1ccc(Cl)cc1 | 451 | 453 | 444 |
| C[S+](=O)([O-])Oc1ccc2c(NC(N)=O)c(C(=O)c3ccc(Cl)cc3Cl)oc2c1 | 515 | 568 | 532 |
| O=C1Cc2cc(C(=O)NC3C[C@H]4CC[C@@H](C3)N4[S+](=O)([O-])CC3CCN(CCCC(F)(F)F)CC3)c(Cl)cc2N1 (some centres not stated) | 525 | 611 | 539 |
| COc1cc(CNC(=O)CCCC/C=C/C(C)C)ccc1O | 542 | 653 | 599 |
| COC(=O)N(C)c1c(N)nc(-c2nn(Cc3ccccc3F)c3ncccc23)nc1N | 488 | 586 | 488 |
| CC1=C(C)C=C(N[S+]([O-])(=O)C2=CC3=C(NC(C4C\C=C/C34)C5=CC=C(C=C5)C(O)=O)C=C2)C=C1 (configuration not stated) | 525 | 600 | 555 |
| Cc1ccc([S+](=O)([O-])N[C@@H](Cc2ccccc2)C(=O)CCl)cc1 | 530 | 628 | 584 |
| O=C1\C=C/C=C2/[C@H]3CNC[C@H](C3)CN12 | 593 | 663 | 576 |
| Cc1ccc(O)c(C(CCN(C(C)C)C(C)C)c2ccccc2)c1.Cl (configuration not stated) | 491 | 625 | 558 |
| CN[C@@H]1[C@H](O[C@H]2[C@H](O[C@@H]3[C@@H](O)[C@H](O)[C@@H](NC(=N)N)[C@H](O)[C@H]3NC(=N)N)O[C@@H](C)[C@]2(O)C=O)O[C@@H](CO)[C@H](O)[C@H]1O | 516 | 606 | 553 |
| Cn1c(Nc2ccc(C(F)(F)F)cc2)nc2cc(Oc3ccnc(-c4nc(C(F)(F)F)c[nH]4)c3)ccc21 | 369 | 508 | 469 |
| COc1cc2ncnc(Nc3cc(Br)c(O)c(Br)c3)c2cc1OC | 523 | 650 | 581 |
| CC(=O)N1CCC[C@H]1C(=O)N[C@@H](Cc1c[nH]cn1)C(=O)N[C@@H](CO)C(=O)N[C@@H](CS)C(=O)N[C@@H](CC(N)=O)C(N)=O | 382 | 527 | 498 |
| NC(=O)NO | 503 | 590 | 511 |
| Cc1csc(NC(=O)c2sc3nc4c(c(C(F)(F)F)c3c2N)CCC4)n1 | 441 | 494 | 472 |
| COc1cc(Nc2ncc(F)c(Nc3ccc4c(n3)NC(=O)C(C)(C)O4)n2)cc(OC)c1OC | 410 | 612 | 563 |
| NCC/1=C/NC(=S)N1[C@H]2CCC3=C(F)C=C(F)C=C3C2 | 495 | 547 | 550 |
| C[C@@H]1CC[C@@]2(OC1)OC1CC3C4CC=C5CC(O)CCC5(C)C4CCC3(C)C1[C@@H]2C (some centres not stated) | 470 | 527 | 465 |
| CC(C)C[C@@H](N)[C@H](O)C(=O)N[C@H](C(=O)N[C@H](C(=O)N[C@@H](CC(=O)O)C(=O)O)C(C)C)C(C)C | 544 | 530 | 549 |
| CC(C)(C)C(=O)Oc1ccc2c(c1)nc(NC(=O)c1cccc([N+](=O)[O-])c1)n2CCCO | 506 | 584 | 525 |
| NNCCc1ccccc1.O=S(=O)(O)O | 450 | 530 | 486 |
| C[C@]\12CCC(=O)\C=C1CC[C@H]3[C@@H]4CC[C@](O)(C(=O)CO)[C@@]4(C)C[C@H](O)[C@H]23 | 458 | 549 | 512 |
| COc1cc2ncnc(Nc3cccc(Br)c3)c2cc1OC | 395 | 583 | 527 |
| OC[C@@H](O)[C@@H](O)[C@H](O)[C@@H](O)CO | 562 | 645 | 592 |
| CCc1cccc2c3c([nH]c12)[C@@](CC)(CC(=O)O)OCC3 | 518 | 605 | 525 |

Source: the supplement of paper PMC10949913
